Results taken from ChEMBL document CHEMBL5137044, “Expansion of the S-CN-DABO scaffold to exploit the impact on inhibitory activities against the non-nucleoside HIV-1 reverse transcriptase” (Eur J Med Chem, 2022).

Tests used:
[1] = tested on: Human immunodeficiency virus 1; assay: Antiviral activity against drug-resistant HIV-1 Y188L mutant infected in human MT4 cells assessed as reduction in virus-induced cytopathic effect incubated for 5 days by MTT assay; format: functional, organism-based; details: Human immunodeficiency virus 1, Y188L mutant, MT4, 120 h
[2] = Fold resistance, ratio of EC50 for antiviral activity against drug-resistant HIV-1 L100I mutant infected in human MT4 cells to EC50 for antiviral activity against […] HIV-1 infected in human MT4 cells; format: functional
[3] = Fold resistance, ratio of EC50 for antiviral activity against drug-resistant HIV-1 E138K mutant infected in human MT4 cells to EC50 for antiviral activity against […] HIV-1 infected in human MT4 cells; format: functional
[4] = tested on: Human immunodeficiency virus 1; assay: Antiviral activity against drug-resistant HIV-1 E138K mutant infected in human MT4 cells assessed as reduction in virus-induced cytopathic effect incubated for 5 days by MTT assay; format: functional, organism-based; details: Human immunodeficiency virus 1, E138K mutant, MT4, 120 h
[5] = Fold resistance, ratio of EC50 for antiviral activity against drug-resistant HIV-1 Y181C mutant infected in human MT4 cells to EC50 for antiviral activity against […] HIV-1 infected in human MT4 cells; format: functional
[6] = Fold resistance, ratio of EC50 for antiviral activity against drug-resistant HIV-1 K103 N mutant infected in human MT4 cells to EC50 for antiviral activity against […] HIV-1 infected in human MT4 cells; format: functional
[7] = target: Human immunodeficiency virus type 1 reverse transcriptase (Human immunodeficiency virus 1, UniProt Q72547); assay: Inhibition of recombinant wild-type p66/p51 HIV-1 reverse transcriptase incubated for 40 mins by picogreen dye-based spectrofluorometric analysis
[8] = tested on: Human immunodeficiency virus 1; assay: Antiviral activity against drug-resistant HIV-1 L100I mutant infected in human MT4 cells assessed as reduction in virus-induced cytopathic effect incubated for 5 days by MTT assay; format: functional, organism-based; details: Human immunodeficiency virus 1, L100I mutant, MT4, 120 h
[9] = tested on: Human immunodeficiency virus 1; assay: Antiviral activity against […] HIV-1 infected in human MT4 cells assessed as reduction in virus-induced cytopathic effect incubated for 5 days by MTT assay; format: functional, organism-based; details: Human immunodeficiency virus 1, MT4, 120 h
[10] = tested on: Human immunodeficiency virus 1; assay: Antiviral activity against drug-resistant HIV-1 K103 N mutant infected in human MT4 cells assessed as reduction in virus-induced cytopathic effect incubated for 5 days by MTT assay; format: functional, organism-based; details: Human immunodeficiency virus 1, K103 N mutant, MT4, 120 h
[11] = tested on: Human immunodeficiency virus 1; assay: Antiviral activity against drug-resistant HIV-1 Y181C mutant infected in human MT4 cells assessed as reduction in virus-induced cytopathic effect incubated for 5 days by MTT assay; format: functional, organism-based; details: Human immunodeficiency virus 1, Y181C mutant, MT4, 120 h
[12] = Selectivity index, ratio of CC50 for human MT4 cells to EC50 for antiviral activity against NNRTI resistant HIV-1 infected in human MT4 cells; format: toxicity, cell-based; details: read-out: Ratio CC50/EC50
[13] = Fold resistance, ratio of EC50 for antiviral activity against drug-resistant HIV-1 Y188L mutant infected in human MT4 cells to EC50 for antiviral activity against […] HIV-1 infected in human MT4 cells; format: functional
[14] = Cytotoxicity against human MT4 cells assessed as cell growth inhibition incubated for 5 days by MTT assay; format: toxicity, cell-based; details: time 5 day
Cytochrome P450 2D6 = Cytochrome P450 2D6 (Homo sapiens, UniProt P10635); assay: Inhibition of CYP2D6 in human liver microsomes incubated for 15 to 40 mins in presence of NADPH; format: ADME, Microsome
Cytochrome P450 2D6, sequence (P10635 whole entry): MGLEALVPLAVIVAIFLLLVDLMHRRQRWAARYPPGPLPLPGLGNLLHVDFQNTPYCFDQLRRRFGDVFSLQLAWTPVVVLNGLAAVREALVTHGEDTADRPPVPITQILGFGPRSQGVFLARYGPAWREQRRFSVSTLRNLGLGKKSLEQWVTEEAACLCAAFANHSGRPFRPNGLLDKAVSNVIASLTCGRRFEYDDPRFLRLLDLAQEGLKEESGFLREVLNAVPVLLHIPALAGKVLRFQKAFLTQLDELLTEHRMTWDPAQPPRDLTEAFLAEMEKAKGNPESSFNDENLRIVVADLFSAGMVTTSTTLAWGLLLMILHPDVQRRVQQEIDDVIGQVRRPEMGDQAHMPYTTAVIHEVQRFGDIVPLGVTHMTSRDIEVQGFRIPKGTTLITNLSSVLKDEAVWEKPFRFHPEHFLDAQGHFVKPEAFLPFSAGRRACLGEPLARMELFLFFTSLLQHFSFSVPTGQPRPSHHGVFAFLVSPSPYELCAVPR

SMILES | EC50 [1] [µM] | Ratio EC50 [2] | Ratio EC50 [3] | EC50 [4] [µM] | Ratio EC50 [5] | Ratio EC50 [6] | IC50 [7] [µM] | EC50 [8] [µM] | EC50 [9] [µM] | EC50 [10] [µM] | EC50 [11] [µM] | selectivity ratio [12] | Ratio EC50 [13] | CC50 at 120 h [14] [µM] | IC50 (Cytochrome P450 2D6) [µM]
Cc1c(C(C#N)c2ccccc2F)nc(SC(C)C)[nH]c1=O (stereo not drawn) | > 113 | 64 | 3 | 0.17 | 71 | 192 | 0.099 | 3.53 | 0.055 | 10.6 | 3.92 | 2030 | >2051 | 113 | –
Cc1c(C(C#N)c2ccc(F)cc2)nc(SC(C)C)[nH]c1=O (stereo not drawn) | > 113 | 16 | 3 | 12.6 | >28 | >28 | 14.3 | 63.5 | 3.98 | > 113 | > 113 | 28 | >28 | 113 | –
Cc1c(C(C#N)c2ccccc2)nc(SC(C)C)[nH]c1=O (stereo not drawn) | > 204 | 28 | 2 | 0.87 | 25 | 185 | 1.51 | 10.3 | 0.37 | 68.3 | 9.21 | 547 | >550 | 204 | –
COc1ccc2c(c1)[C@]13CCCC[C@@H]1[C@H](C2)N(C)CC3 [DEXTROMETHORPHAN] | – | – | – | – | – | – | – | – | – | – | – | – | – | – | 0.0408
